Data set [1] in a line: Detection of free Benz in tumor tissue (HPLC). In kind it is in vivo, mouse. The note with it: 600 mg/Kg Benz-treated group. The method, then: After recording the weights of tumor mass, tumor tissues from 600 mg/Kg Benz-treated group and 200 mg/Kg liposomal Benz-treated group were lightly washed and blotted to remove any excess blood. Then tumor tissues were homogenized and extracted with methanol, and 100 μL of the extracts were then subjected to HPLC assay. HPLC analysis was conducted by using a reverse phase column (Restek C18 5 μm, 250 mm × 4.6 mm) with a mobile phase of methanol-water- trifluoroacetic acid (20: 1000: 1).

For another data set, the target named is T1, HK4 (Homo sapiens, UniProt P35557).
T1 construct: made in house; host or cells: E. coli BL21 (DE3)
T1 sequence (P35557 1-465): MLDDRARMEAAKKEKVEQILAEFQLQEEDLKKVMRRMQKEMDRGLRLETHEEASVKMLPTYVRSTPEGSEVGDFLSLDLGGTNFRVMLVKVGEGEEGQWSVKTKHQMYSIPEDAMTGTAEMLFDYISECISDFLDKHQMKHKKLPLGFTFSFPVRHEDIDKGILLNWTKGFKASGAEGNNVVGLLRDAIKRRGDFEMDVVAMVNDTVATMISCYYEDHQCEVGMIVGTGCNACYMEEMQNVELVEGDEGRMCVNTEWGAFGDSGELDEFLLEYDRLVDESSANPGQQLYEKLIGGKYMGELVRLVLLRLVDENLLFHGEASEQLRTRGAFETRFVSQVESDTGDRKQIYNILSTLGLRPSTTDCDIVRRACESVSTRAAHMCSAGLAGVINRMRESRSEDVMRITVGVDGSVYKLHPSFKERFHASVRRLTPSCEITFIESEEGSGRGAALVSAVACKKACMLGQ
Briefly: In vitro enzyme inhibition assay (G6P-DH coupled, NADH 340 nm). The data set is classed as biochemical. As to conditions: recombinant HK4. The method, then: (§1) Then 85 μL assay mix containing 100 mM Tris HCl pH 8.0, 5 mM MgCl2, 200 mM Glucose, 0.8 mM ATP, 1 mM NAD^+, 0.25 Units of G6P-DH, was added.

In another data set the target is T2, HK1 (Homo sapiens, UniProt P19367).
T2 construct: purchased Shanghai yuanye Bio-Technology Co., Ltd (China)
T2 sequence (P19367 1-917): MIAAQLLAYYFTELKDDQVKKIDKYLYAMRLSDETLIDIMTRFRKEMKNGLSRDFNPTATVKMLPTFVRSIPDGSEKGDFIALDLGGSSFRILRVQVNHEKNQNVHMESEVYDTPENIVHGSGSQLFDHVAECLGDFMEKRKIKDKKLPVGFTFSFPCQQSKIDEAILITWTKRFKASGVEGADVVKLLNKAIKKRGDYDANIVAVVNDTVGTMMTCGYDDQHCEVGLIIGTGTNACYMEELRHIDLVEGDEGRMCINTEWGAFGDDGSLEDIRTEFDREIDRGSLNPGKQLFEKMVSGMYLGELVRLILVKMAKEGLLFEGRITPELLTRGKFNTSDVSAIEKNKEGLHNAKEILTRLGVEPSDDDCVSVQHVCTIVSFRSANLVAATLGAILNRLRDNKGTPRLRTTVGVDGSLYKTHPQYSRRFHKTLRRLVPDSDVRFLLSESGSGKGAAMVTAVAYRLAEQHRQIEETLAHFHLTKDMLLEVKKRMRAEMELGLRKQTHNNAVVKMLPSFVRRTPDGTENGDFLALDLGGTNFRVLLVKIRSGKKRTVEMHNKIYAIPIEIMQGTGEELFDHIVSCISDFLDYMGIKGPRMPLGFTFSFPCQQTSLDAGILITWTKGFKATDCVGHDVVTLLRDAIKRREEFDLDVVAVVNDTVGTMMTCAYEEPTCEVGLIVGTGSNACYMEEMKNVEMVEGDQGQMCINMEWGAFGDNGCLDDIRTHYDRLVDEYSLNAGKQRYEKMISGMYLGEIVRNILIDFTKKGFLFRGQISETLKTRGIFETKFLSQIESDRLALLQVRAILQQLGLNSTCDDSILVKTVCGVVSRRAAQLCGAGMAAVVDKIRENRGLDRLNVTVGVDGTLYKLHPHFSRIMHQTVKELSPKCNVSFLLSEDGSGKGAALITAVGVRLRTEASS
The description is as above. The data set is classed as biochemical. The note with it: recombinant HK1. The method, then: as §1

Data set [2] relates to SW480 cells. Put plainly: Glucose uptake assay. The data set is classed as cell-based, human. The note with it: 48 h; versus untreated or Met treated control. How it is done:
The Glucose Assay Kit (Rsbio, Shanghai, China) was used to analyse the glucose uptake. After 48 h drug treatment, media was collected and diluted within water. The amount of glucose in the media was then detected. Glucose uptake was determined by subtracting the amount of glucose in each sample from the total amount of glucose in the media (without cells). Met was used as a standard control in this assay.

Data set [3] relates to SW480 cells. Briefly: Cell proliferation assay (CCK-8). The data set is classed as cell-based, human. The note with it: 100, 200, 400 μM, 24-96 h. How it is done: (§2) HCT116 and SW480 cells were seeded at a density of 2 × 10^3 per well into 96-well plates. Cell proliferation was assessed by incubating them with Cell Counting Kit-8 reagents (Dojindo, Shanghai, China) for 24 h,48 h, 72 h, 96 h at 37 °C and measuring the absorbance at 450 nm. The experiment was performed in triplicate.

Another data set has as its system HCT116 cells. Put plainly: Cell proliferation assay (CCK-8). The data set is classed as cell-based, human. The note with it: 100, 200, 400 μM, 24-96 h. How it is done:
as §2

Usually IC50 stands for the concentration at which inhibition is half-maximal. Take `NC(CO)C(=O)NNCc1ccc(O)c(O)c1O` (stereo not drawn) [Benz, Benserazide]: in data set [1], the “average concentration of free Benz in tumor tissue” value was 5.59 µg/mg. Further, the IC50 on HK4 was 40.5 ± 2.94 µM; on HK1 it was 25.13 ± 0.24 µM. For the same compound, the glucose uptake entry in the data set on SW480 cells [2] is “significantly lower”. The cell proliferation result in the data set on SW480 cells [3] and in the data set on HCT116 cells was “markedly inhibited proliferation” throughout.

The values are drawn from paper PMC5399312 (Journal of Experimental & Clinical Cancer Research : CR, 2017).
